Values of other authors in patent US20220257611A1 (APTYS Pharmaceuticals SAS, priority 2019, published 2022).

How the values were obtained:
[1] = in vivo
[2] = in vivo; remark: listed apart in the source

SMILES: CC(=O)Nc1ccc(O)cc1 [acetaminophen, N-acetyl-p-amino-phenol]
- median effective analgesic dose (median value and 95% confidence interval) [1]: 500 mg

SMILES: CN1CCOC(c2ccccc2)c2ccccc2C1 (centres unmarked) [nefopam, 5-methyl-1-phenyl-1,3,4,6-tetrahydro-2,5-benzoxazocine]
- elimination half-life [2]: four
